The text below walks through data of PMC10952897, “The Role of Cytochrome P450 AbyV in the Final Stages of Abyssomicin C Biosynthesis” (Angewandte Chemie (Weinheim an Der Bergstrasse, Germany), 2022).

For orientation: Kd means the free concentration of one partner at which half of the binding sites on the other are occupied at equilibrium, for simple one-to-one binding. Low readings indicate higher affinity, high ones lower affinity.

The assay addresses T1, AbyV (Micromonospora maris, UniProt F4F6Q5).
T1 construct: N-terminal His6 tag (pOPINF::abyV), E. coli BL21(DE3)
As to the kind of experiment: titration of substrate into buffered AbyV solution. Format: binding.

T1 sequence (F4F6Q5 entry or part of it): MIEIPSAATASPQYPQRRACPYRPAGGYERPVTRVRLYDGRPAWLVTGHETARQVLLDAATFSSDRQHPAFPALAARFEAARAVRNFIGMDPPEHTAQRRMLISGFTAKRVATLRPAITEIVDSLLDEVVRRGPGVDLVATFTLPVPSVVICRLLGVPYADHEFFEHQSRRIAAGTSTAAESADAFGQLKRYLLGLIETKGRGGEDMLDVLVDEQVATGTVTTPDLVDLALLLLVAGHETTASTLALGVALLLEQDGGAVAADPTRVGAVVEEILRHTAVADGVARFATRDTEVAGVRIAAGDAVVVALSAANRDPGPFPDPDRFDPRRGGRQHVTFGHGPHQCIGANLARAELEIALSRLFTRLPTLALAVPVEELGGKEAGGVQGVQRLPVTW

`C[C@@H]1C[C@H](C)C(=O)/C=C/[C@@H]2C=C[C@H](C)C[C@@]23OC(=O)C(=C3O)C1=O` (mixture of isomers) [compound 3, spirotetronate 3]: the Kd amounted to 34 ± 7 µM.
